Measured values taken from US9012655B2, “Antimicrobial/adjuvant compounds and methods” (Denouamed, Inc., priority 2011, dated 2015).
In brackets after ≈: the same amount, converted by molar mass.

Experiments:
Assay in all cases: MIC panel of challenge pathogens (CLSI)
Assay type in all cases: cell-based
Bacillus cereus NCTC6349 = conditions: Bacillus cereus NCTC6349
Outline: (§1)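 Broth microdilution per CLSI guidelines. Final inoculum 2-8×10^5 CFU/ml, compounds serially two-fold diluted from 128 mg/L top concentration. Incubated in the dark at 30-37° C for 24-48 h, aerobic or anaerobic as appropriate. MIC read visually as 100% inhibition endpoint; MIC50 and MIC80 also reported.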

[1] = system: Enterococcus faecalis ATCC29212; conditions: Enterococcus faecalis ATCC29212
Outline: as §1

[2] = system: Enterococcus faecalis ATCC51299; conditions: Enterococcus faecalis ATCC51299
Outline: as §1

[3] = system: Enterococcus faecium ATCC700221; conditions: Enterococcus faecium ATCC700221
Outline: as §1

[4] = system: Staphylococcus aureus ATCC43300; conditions: Staphylococcus aureus ATCC43300
Outline: as §1

[5] = system: Staphylococcus aureus AUR131 007035; conditions: AUR131007035, Staphylococcus aureus AUR131 007035
Outline: as §1

[6] = system: Staphylococcus aureus AUR58 7005; conditions: AUR587005, Staphylococcus aureus AUR58 7005
Outline: as §1

[7] = system: Staphylococcus aureus AUR59 7005; conditions: AUR597005, Staphylococcus aureus AUR59 7005
Outline: as §1

[8] = system: Staphylococcus aureus AUR60 7005; conditions: AUR607005, Staphylococcus aureus AUR60 7005
Outline: as §1

[9] = system: Staphylococcus aureus EUP MRSA002; conditions: EUPMRSA002, Staphylococcus aureus EUP MRSA002
Outline: as §1

[10] = system: Staphylococcus aureus EUP MRSA004; conditions: EUPMRSA004, Staphylococcus aureus EUP MRSA004
Outline: as §1

[11] = system: Staphylococcus aureus EUP SAU040; conditions: EUPSAU040, Staphylococcus aureus EUP SAU040
Outline: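 CLSI broth microdilution; inoculum 2-8×10^5 CFU/ml; 2-fold series, top 128 mg/L; 30-37° C, 24-48 h, dark; visual read, 100% inhibition endpoint.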

[12] = system: Staphylococcus aureus NRS1 (ATCC700699); conditions: Staphylococcus aureus NRS1 (ATCC700699)
Outline: as §1

[13] = system: Staphylococcus aureus NRS2 (ATCC700698); conditions: Staphylococcus aureus NRS2 (ATCC700698)
Outline: as §1

[14] = system: Staphylococcus aureus NRS382; conditions: Staphylococcus aureus NRS382
Outline: as §1

[15] = system: Staphylococcus aureus NRS383; conditions: Staphylococcus aureus NRS383
Outline: as §1

[16] = system: Staphylococcus aureus NRS384; conditions: Staphylococcus aureus NRS384
Outline: as §1

[17] = system: Staphylococcus epidermidis NRS122; conditions: Staphylococcus epidermidis NRS122
Outline: as §1

[18] = system: Staphylococcus epidermidis NRS7; conditions: Staphylococcus epidermidis NRS7
Outline: as §1

CCCCc1cccc(-c2cc(-c3nnn[nH]3)sc2Cc2ccc(Cl)cc2)c1 [DNM0606, 5-(4-(3-Butylphenyl)-5-(4-chlorobenzyl)thiophen-2-yl)-1H-tetrazole]
MIC (Bacillus cereus NCTC6349; read-out: 100% inhibition): 0.5 µg/mL (≈ 1.22 µM)
MIC50 (Bacillus cereus NCTC6349; read-out: MIC50 (50%)): 0.5 µg/mL (≈ 1.22 µM)
MIC80 (Bacillus cereus NCTC6349; read-out: MIC80 (80%)): 0.5 µg/mL (≈ 1.22 µM)
MIC ([1]; read-out: 100% inhibition): 1 µg/mL (≈ 2.45 µM)
MIC50 ([1]; read-out: MIC50 (50%)): 1 µg/mL (≈ 2.45 µM)
MIC80 ([1]; read-out: MIC80 (80%)): 1 µg/mL (≈ 2.45 µM)
MIC ([2]; read-out: 100% inhibition): 1 µg/mL (≈ 2.45 µM)
MIC50 ([2]; read-out: MIC50 (50%)): 1 µg/mL (≈ 2.45 µM)
MIC80 ([2]; read-out: MIC80 (80%)): 1 µg/mL (≈ 2.45 µM)
MIC ([3]; read-out: 100% inhibition): 1 µg/mL (≈ 2.45 µM)
MIC50 ([3]; read-out: MIC50 (50%)): 1 µg/mL (≈ 2.45 µM)
MIC80 ([3]; read-out: MIC80 (80%)): 1 µg/mL (≈ 2.45 µM)
MIC ([4]; read-out: 100% inhibition): ≤ 0.25 µg/mL
MIC50 ([4]; read-out: MIC50 (50%)): ≤ 0.25 µg/mL
MIC80 ([4]; read-out: MIC80 (80%)): ≤ 0.25 µg/mL
MIC ([5]; read-out: 100% inhibition): 0.5 µg/mL (≈ 1.22 µM)
MIC50 ([5]; read-out: MIC50 (50%)): 0.5 µg/mL (≈ 1.22 µM)
MIC80 ([5]; read-out: MIC80 (80%)): 0.5 µg/mL (≈ 1.22 µM)
MIC ([6]; read-out: 100% inhibition): 1 µg/mL (≈ 2.45 µM)
MIC50 ([6]; read-out: MIC50 (50%)): 0.5 µg/mL (≈ 1.22 µM)
MIC80 ([6]; read-out: MIC80 (80%)): 1 µg/mL (≈ 2.45 µM)
MIC ([7]; read-out: 100% inhibition): 0.5 µg/mL (≈ 1.22 µM)
MIC50 ([7]; read-out: MIC50 (50%)): 0.5 µg/mL (≈ 1.22 µM)
MIC80 ([7]; read-out: MIC80 (80%)): 0.5 µg/mL (≈ 1.22 µM)
MIC ([8]; read-out: 100% inhibition): 0.5 µg/mL (≈ 1.22 µM)
MIC50 ([8]; read-out: MIC50 (50%)): 0.5 µg/mL (≈ 1.22 µM)
MIC80 ([8]; read-out: MIC80 (80%)): 0.5 µg/mL (≈ 1.22 µM)
MIC ([9]; read-out: 100% inhibition): 0.5 µg/mL (≈ 1.22 µM)
MIC50 ([9]; read-out: MIC50 (50%)): 0.5 µg/mL (≈ 1.22 µM)
MIC80 ([9]; read-out: MIC80 (80%)): 0.5 µg/mL (≈ 1.22 µM)
MIC ([10]; read-out: 100% inhibition): ≤ 0.25 µg/mL
MIC50 ([10]; read-out: MIC50 (50%)): ≤ 0.25 µg/mL
MIC80 ([10]; read-out: MIC80 (80%)): ≤ 0.25 µg/mL
MIC ([11]; read-out: 100% inhibition): ≤ 0.25 µg/mL
MIC50 ([11]; read-out: MIC50 (50%)): ≤ 0.25 µg/mL
MIC80 ([11]; read-out: MIC80 (80%)): ≤ 0.25 µg/mL
MIC ([12]; read-out: 100% inhibition): 0.5 µg/mL (≈ 1.22 µM)
MIC50 ([12]; read-out: MIC50 (50%)): 0.5 µg/mL (≈ 1.22 µM)
MIC80 ([12]; read-out: MIC80 (80%)): 0.5 µg/mL (≈ 1.22 µM)
MIC ([13]; read-out: 100% inhibition): 0.5 µg/mL (≈ 1.22 µM)
MIC50 ([13]; read-out: MIC50 (50%)): 0.5 µg/mL (≈ 1.22 µM)
MIC80 ([13]; read-out: MIC80 (80%)): 0.5 µg/mL (≈ 1.22 µM)
MIC ([14]; read-out: 100% inhibition): 0.5 µg/mL (≈ 1.22 µM)
MIC50 ([14]; read-out: MIC50 (50%)): 0.5 µg/mL (≈ 1.22 µM)
MIC80 ([14]; read-out: MIC80 (80%)): 0.5 µg/mL (≈ 1.22 µM)
MIC ([15]; read-out: 100% inhibition): ≤ 0.25 µg/mL
MIC50 ([15]; read-out: MIC50 (50%)): ≤ 0.25 µg/mL
MIC80 ([15]; read-out: MIC80 (80%)): ≤ 0.25 µg/mL
MIC ([16]; read-out: 100% inhibition): ≤ 0.25 µg/mL
MIC50 ([16]; read-out: MIC50 (50%)): ≤ 0.25 µg/mL
MIC80 ([16]; read-out: MIC80 (80%)): ≤ 0.25 µg/mL
MIC ([17]; read-out: 100% inhibition): 4 µg/mL (≈ 9.78 µM)
MIC50 ([17]; read-out: MIC50 (50%)): 2 µg/mL (≈ 4.89 µM)
MIC80 ([17]; read-out: MIC80 (80%)): 4 µg/mL (≈ 9.78 µM)
MIC ([18]; read-out: 100% inhibition): 1 µg/mL (≈ 2.45 µM)
MIC50 ([18]; read-out: MIC50 (50%)): 0.5 µg/mL (≈ 1.22 µM)
MIC80 ([18]; read-out: MIC80 (80%)): 0.5 µg/mL (≈ 1.22 µM)
